Experimental data taken from US20160089343A1 (LSU Health Sciences Center Shreveport, priority 2014, published 2016).
“Also recorded” adds a separate entry of the source.

What was measured:
tumor formation = assay: Model of minimal residual disease; type: in vivo
mTOR pathway markers = assay: Phase 2 biomarker exploratory trial in HNSCC patients; type: in vivo, human
Excerpt: Criteria #1) Biomarker expression in normal tissue should be different from that in high risk tissue. In FIG. 2 we present an analysis of cancer (lanes 5, 6, 11, and 12) and non-cancer (patients with sleep apnea) (lanes 1-4 and 7-10) patient samples. The cancer samples include tumors (T) and histologically tumor-free margins (M). […] Criteria #2) Biomarkers can be detected in small tissue specimens. In our studies we have successfully detected by western blots and even by IHC the various Akt/mTOR markers on samples often as small as 5 mm. Criteria #3) Biomarkers can be expressed in a quantity or pattern that can be correlated with the stage of carcinogenesis.

HNSCC cell lines = HNSCC cell lines screened for sensitivity to curcumin (cell proliferation); type: cell-based; conditions: for sensitivity of a variety of cell lines: spread of sensitivity across cell lines
[1] = test system: normal fibroblast cell line CCL110; assay: Cell proliferation in the normal fibroblast cell line; type: cell-based; conditions: CCL110, in vitro
[2] = test system: NFκB and Akt/mTOR pathways in PCI15a cells; assay: Modulation of NFκB and Akt/mTOR pathways, PCI15a cells; type: cell-based; conditions: 10 μM curcumin
[3] = test system: NFκB and Akt/mTOR pathways in SCC40 cells; assay: Modulation of NFκB and Akt/mTOR pathways, SCC40 cells; type: cell-based; conditions: SCC40, 10 μM curcumin
[4] = test system: Akt/mTOR pathway in SCC066 cells; assay: Modulation of NFκB and Akt/mTOR pathways, SCC066 cells; type: cell-based; conditions: SCC066, 10 μM curcumin, 24 and 48 hours
[5] = test system: pNFκB or Akt/mTOR in CCL110 cells; assay: Modulation of NFκB and Akt/mTOR pathways, CCL110 normal fibroblasts; type: cell-based; conditions: CCL110, 10 μM curcumin, 24 and 48 hours
[6] = test system: pAkt and pS6 in SCC40 xenografts; assay: pAkt and pS6 in SCC40 xenografts of curcumin-treated mice; type: in vivo; conditions: mice with SCC40 xenografts treated with curcumin
tumor cells = assay: Chemoprevention model: pre-treatment before injecting tumor cells, tumor volume; type: in vivo, Balb/c nu/nu mice; conditions: from 4 days before tumor cells, about three weeks
Procedure: Balb/c nu/nu mice were randomized into treatment groups. […] Tumors were measured over approximately three weeks. […] ANOVA analysis. […] This also points to its role as a chemopreventive agent rather than a therapeutic agent.

[7] = test system: AKT/mTOR pathway, FGF-2 and MMP-9 in HNSCC cell lines; assay: Biomarkers in HNSCC cell lines (earlier work); type: cell-based
Excerpt: Also, identifying a consistent biomarker that can be validated in chemoprevention trials is critical, as the occurrence of cancer as an end point could take years. […] Acquiring the angiogenic phenotype by premalignant cells is the a critical step in carcinogenesis and FGF-2 is one of the most important angiogenic markers. Oral dysplasias are characterized by deregulations (DNA amplification and homozygous deletion) of multiple components of the FGF signaling network. […] GM-CSF promotes proliferation of endothelial progenitor cells, induces endothelial capillary formation via stimulation of MMP expression and activates JAK2/STAT-3 pathway. IL-17, besides its function as immune marker, is also implicated in stimulating angiogenesis.

[8] = test system: TPA-induced tumors on mouse skin; conditions: topical 10 μmol curcumin twice weekly; cited from earlier work
DMBA-induced oral tumors = conditions: topical 10 μmol curcumin to cheek pouch 3 times/week for 24 weeks; cited from earlier work
[9] = test system: prostate cancer xenograft; conditions: p.o. gavage 5 mg/day, 5 days/week for 4 weeks; cited from earlier work

CO[C@H]1C[C@@H]2CC[C@@H](C)[C@@](O)(O2)C(=O)C(=O)N2CCCC[C@H]2C(=O)O[C@H]([C@H](C)C[C@@H]2CC[C@@H](OC(=O)C(C)(CO)CO)[C@H](OC)C2)CC(=O)[C@H](C)/C=C(\C)[C@@H](O)[C@@H](OC)C(=O)[C@H](C)C[C@H](C)/C=C/C=C/C=C/1C [CCI-779, temsirolimus]
survival (tumor formation): improve survival | tumor formation (tumor formation): inhibit tumor formation | mTOR pathway markers in tumors and PBMCs (mTOR pathway markers): modulation of these markers

CO[C@H]1C[C@@H]2CC[C@@H](C)[C@@](O)(O2)C(=O)C(=O)N2CCCC[C@H]2C(=O)O[C@H]([C@H](C)C[C@@H]2CC[C@@H](OCCO)[C@H](OC)C2)CC(=O)[C@H](C)/C=C(\C)[C@@H](O)[C@@H](OC)C(=O)[C@H](C)C[C@H](C)/C=C/C=C/C=C/1C [RAD001, everolimus]
sensitivity of a variety of cell lines (HNSCC cell lines): wide range of sensitivity

COc1cc(/C=C/C(=O)CC(=O)/C=C/c2ccc(O)c(OC)c2)ccc1O [curcumin]
growth inhibitory effect (HNSCC cell lines; all 10 HNSCC cell lines tested to date): growth inhibitory effects | effect on cell proliferation (HNSCC cell lines; all HNSCC cell lines, 10 μM curcumin): inhibition of cell proliferation | anti-proliferative effect (HNSCC cell lines; panel of nine HNSCC cell lines, earlier work): robust anti-proliferative effects | sensitivity of a variety of cell lines (HNSCC cell lines): consistently sensitive | growth inhibitory effect (HNSCC cell lines; three HNSCC cell lines (PCI15a, SCC40, SCC066), 10 μM, 48 hours): significant growth inhibitory effects | curcumin concentration giving consistent inhibition of cell proliferation (HNSCC cell lines; variety of HNSCC cell lines, in vitro): less than 10 μM | dose required to see effects in normal fibroblasts [1]: 20 to 40 µM | pNFκB ([2]; 24 and 48 hours): no change | pAkt ([2]; 48 hours): down-regulated | pS6 downstream of mTOR ([2]; 48 hours): down-regulated | Akt/mTOR pathway ([3]; 24 and 48 hours): no change | pNFκB ([3]; 48 hours): down-regulation | Akt/mTOR pathway [4]: did not show any modulation | pNFκB or Akt/mTOR [5]: no decrease | pAkt in xenografts [6]: significant decrease | pS6 in xenografts [6]: significant decrease | tumor volume versus control (vehicle treated) (tumor cells; 10 mg curcumin): no significant difference | tumor volume versus control (vehicle treated) (tumor cells; 15 mg curcumin, p=0.007, mixed ANOVA): statistically significant difference | FGF-2 expression in HNSCC cells ([7]; p<0.001): downregulation; also recorded: significant inhibition | AKT/mTOR pathway in HNSCC cell lines ([7]; panel of nine HNSCC cell lines): inhibition | MMP-9 in HNSCC cell lines ([7]; panel of nine HNSCC cell lines): downregulation | inhibition of the number of tumors per mouse [8]: 98% | reduction of the number of DMBA-induced oral tumors (DMBA-induced oral tumors): ~40% | inhibition of growth of prostate cancer xenograft [9]: ~50%
